Reference: patent publication US7419657B2, “Treatment of atherosclerotic disorders” (priority 2001, dated 2008)
Where “and” joins values, the source holds several entries; their conditions need not be identical. Equal entries are not always repeated. Where two headings read alike, the source gives them in different places. Marks after values point to notes of the source that are not given here.

Assays:
anti-Chlamydia abzymes [1] = assay type: biochemical, human; parameters: key to In-vitro Inhibition: + = inhibition; − = no inhibition; conditions: for Anti-Abzyme activity: control 21.7
lesion IgG = assay: LDL peroxidation by lesion IgG with tested antioxidants; assay type: biochemical, human
Chlamydia = assay type: biochemical, Chlamydia pneumoniae or Chlamydia Psittaci
anti-Chlamydia IgG [2] = assay: Anti-abzyme therapy trial: anti-Chlamydia IgG; assay type: in vivo, human
[3] = Anti-abzyme therapy trial: modified Rose-Blackburn Questionnaire; assay type: in vivo, human; parameters: Score by modified Rose-Blackburn Questionnaire, 60 days after start of the treatment / Rose Blackthorn Score Day 60: scale not given here
Excerpt: The progression of the clinical condition of the patients was monitored by the use of the modified Bruce Protocol for treadmill exercise/stress ECG testing and on the Rose-Blackburn Questionnaire (Cardiovascular Survey Methods. WHO, Geneva, 1968).

anti-Chlamydia IgG [4] = conditions: best of previously undertaken trials with azithromycin; cited from earlier work
anti-Chlamydia abzymes [5] = assay: Anti-abzyme therapy trial in ischaemic heart disease: serum abzyme activity; assay type: in vivo, human
anti-Chlamydia abzymes [6] = assay: Serum abzyme activity in stable angina patients treated with azithromycin with or without aspirin (Example 8); assay type: in vivo, human; conditions: azithromycin 500 mg once per day
[7] = 10 μM of each Me2+-binding agent
[8] = 10 μM of each Me2+-binding agent, control 24.3
[9] = LDL 480 μg of protein, +0.1 M antioxidant, control 0.49 ± 0.023
[10] = individual IHD patients negative for anti-Chlamydia IgG
[11] = Therapy Group A individual IHD patients, azithromycin 500 mg daily
[12] = Therapy Group A mean, before treatment 47.5
[13] = group mean, before treatment 45.9
[14] = individual stable angina patients

In the case of `O=C(O)c1ccccn1` [Picolinic acid], the “In-vitro Inhibition” value (anti-Chlamydia abzymes [1]) is reported as “+”, the “Result (inhibition of anti-Chlamydia abzymes)” value (anti-Chlamydia abzymes [1]; [7]) is reported as “Positive” and the “Lipid oxidising activity of anti-Chlamydia abzymes” value (“Lipid oxidising activity” below) (anti-Chlamydia abzymes [1]; [8]) is reported as 0 μM MDA/ml.
In the case of Nadroparin Calcium, the Anti-Abzyme activity (anti-Chlamydia abzymes [1]; drug 95 UI) is reported as 20.5 μM MDA/ml and the Anti-Abzyme activity (anti-Chlamydia abzymes [1]; drug 465 UI) is reported as 12.8 μM MDA/ml.
In the case of `C[S+](C)[O-]` [DMSO], the “Level of MDA production by 0.82 μg of lesion IgG” value (“Level of MDA production” for short) (lesion IgG; LDL 480 μg of protein, +1% antioxidant, control 0.49 ± 0.023) is reported as 0 µM and the “development of lipid oxidation reaction” value (Chlamydia) is reported as “completely abrogated”.
For `O=C[O-].[Na+]` [sodium formate], the “Level of MDA production” value (lesion IgG; [9]) was 0 µM.
In the case of `O=C(O)CN(CCN(CC(=O)O)CC(=O)O)CCN(CC(=O)O)CC(=O)O` [DTPA], the “In-vitro Inhibition” value (anti-Chlamydia abzymes [1]) is reported as “−”, the “Result (inhibition of anti-Chlamydia abzymes)” value (anti-Chlamydia abzymes [1]; [7]) is reported as “Negative” and the “Lipid oxidising activity” value (anti-Chlamydia abzymes [1]; [8]) is reported as 45.2 μM MDA/ml.
With `O=C(O)c1ccccc1` [benzole acid] the “Level of MDA production” value (lesion IgG; [9]) was 0 µM.
In the case of `CC[C@H]1OC(=O)[C@H](C)[C@@H](O[C@H]2C[C@@](C)(OC)[C@@H](O)[C@H](C)O2)[C@H](C)[C@@H](O[C@@H]2O[C@H](C)C[C@H](N(C)C)[C@H]2O)[C@](C)(O)C[C@@H](C)CN(C)[C@H](C)[C@@H](O)[C@]1(C)O` [Azithromycin], the “Anti-Chlamydia IgG, 60 days after treatment” value (anti-Chlamydia IgG [2]; summary, group value, before treatment 43.6, 48.5, 52.0 (A, C, B), immuno-fluorescent assay) is reported as 0 (titers)^−1, the “presence of anti-Chlamydia IgG after the intensive regimen” value (anti-Chlamydia IgG [2]; therapy trial) is reported as “totally eliminated” and the “Score by modified Rose-Blackburn Questionnaire, 60 days after start of the treatment” value ([3]; group mean) is reported as 14.4 ± 1.14. For the same compound, the “Rose Blackthorn Score Day 60” value [3, 10] was 18 and 19 and 10 and 13, the “Score by modified Rose-Blackburn Questionnaire, 60 days after start of the treatment” value ([3]; individual patients) was 13 and 16 and 18 and 15 (2×) and 8 and 11 and 17 (2×) and 19 and 10 and the “Clinical Status modified Rose G., Blackburn H Questionnaire, 60 days after treatment” value ([3]; summary, group mean, PCG 21.5 ± 1.19) was 14.4 ± 1.14. The “treated patients with a reduction of titers of anti-Chlamydia antibodies” value (anti-Chlamydia IgG [4]) was 43%, the “Anti-Chlamydia abzyme activity, 15 days after the start of treatment” value (anti-Chlamydia abzymes [5]; [11]) was 6.7 μM MDA/ml (3×) and 0 μM MDA/ml (3×) and 60* μM MDA/ml and 8.3 μM MDA/ml and 33 μM MDA/ml and 75* μM MDA/ml and 52* μM MDA/ml and the “Anti-Chlamydia abzyme activity, 30 days after the start of treatment” value (anti-Chlamydia abzymes [5]; [11]) was 78** μM MDA/ml and 0 μM MDA/ml (3×) and 37* μM MDA/ml and 28** μM MDA/ml and 3.3 μM MDA/ml (2×) and 10 μM MDA/ml (2×) and 78* μM MDA/ml. The “Anti-Chlamydia abzyme activity, 45 days after the start of treatment” value (anti-Chlamydia abzymes [5]; [11]) was 17 μM MDA/ml and 0 μM MDA/ml (5×) and 20* μM MDA/ml and 43* μM MDA/ml and 3.3 μM MDA/ml (2×) and 5.0 μM MDA/ml, the “Anti-Chlamydia abzyme activity, 60 days after the start of treatment” value (anti-Chlamydia abzymes [5]; [11]) was 3.3 μM MDA/ml and 6.7 μM MDA/ml (2×) and 0 μM MDA/ml (7×) and 0.5 μM MDA/ml and the “Anti-Chlamydia abzyme activity, 15 days after the start of treatment” value (anti-Chlamydia abzymes [5]; [12]) was 22.5 μM MDA/ml. For the same compound, the “Anti-Chlamydia abzyme activity, 30 days after the start of treatment” value (anti-Chlamydia abzymes [5]; [12]) was 22.5 μM MDA/ml, the “Anti-Chlamydia abzyme activity, 45 days after the start of treatment” value (anti-Chlamydia abzymes [5]; [12]) was 7.4 μM MDA/ml and the “Anti-Chlamydia abzyme activity, 60 days after the start of treatment” value (anti-Chlamydia abzymes [5]; [12]) was 1.6 μM MDA/ml. The “patients with no changes in the abzyme activity after 15 days” value (anti-Chlamydia abzymes [5]; Therapy Group A, 3 out of 11) was 27%, the “Abzyme activity Day 60” value (anti-Chlamydia abzymes [5]; [10]) was 6.7 (2×) and 3.3 and 0 and the “Anti-Chlamydia abzymes activity, 60 days after treatment” value (anti-Chlamydia abzymes [5]; summary, group mean, PCG 55.3 ± 6.18, Norm 6.36 ± 1.14) was 1.6 ± 0.89 μM/MDA/ml. The “Anti-Chlamydia abzyme activity, 15 days after the start of the treatment” value (anti-Chlamydia abzymes [6]; [13]) was 19.6 μM MDA/ml, the “Anti-Chlamydia abzyme activity, 30 days after the start of the treatment” value (anti-Chlamydia abzymes [6]; [13]) was 17.7 μM MDA/ml and the “Anti-Chlamydia abzyme activity, 15 days after the start of the treatment” value (anti-Chlamydia abzymes [6]; [14]) was 60 μM MDA/ml and 0 μM MDA/ml (3×) and 8.3 μM MDA/ml and 6.7 μM MDA/ml (3×) and 33 μM MDA/ml and 75 μM MDA/ml. The “Anti-Chlamydia abzyme activity, 30 days after the start of the treatment” value (anti-Chlamydia abzymes [6]; [14]) was 37 μM MDA/ml and 0 μM MDA/ml (3×) and 28 μM MDA/ml and 3.3 μM MDA/ml (2×) and 10 μM MDA/ml and 78 μM MDA/ml, the “Lipid oxidising activity” value (anti-Chlamydia abzymes [1]; in DMSO, 1 μM, control 61) was 7 μM MDA/ml and the “Lipid oxidising activity” value (anti-Chlamydia abzymes [1]; in DMSO, 5 μM, control 61) was 0 μM MDA/ml. For the same compound, the “Lipid oxidising activity” value (anti-Chlamydia abzymes [1]; suspension in water, 1 μM, control 61) was 19 μM MDA/ml, the “Lipid oxidising activity” value (anti-Chlamydia abzymes [1]; suspension in water, 2 μM, control 61) was 0 μM MDA/ml and the “Lipid oxidising activity” value (anti-Chlamydia abzymes [1]; suspension in water, 10 μM, control 61) was 0 μM MDA/ml. The “Lipid oxidising activity” value (anti-Chlamydia abzymes [1]; suspension in water, 20 μM, control 61) was 0 μM MDA/ml, the adverse reactions (human, in vivo) was “No adverse reactions” and the “tablets of nitroglycerine daily after 15 days of treatment” value (patient 5, before treatment 10 tablets daily) was 5 tablets of nitroglycerine.
In the case of `N.N.O=S(=O)(O)O` [ammonium sulphate], the “lipid oxidising reaction in the test system” value (Chlamydia) is reported as “no lipid oxidising reaction”.
With `O=C1O[C@H]([C@@H](O)CO)C(O)=C1O` [ascorbic acid] the “Level of MDA production” value (lesion IgG) was 0 µM.
With Heparin the Anti-Abzyme activity (anti-Chlamydia abzymes [1]; drug 0.1 mg/ml) was 19.7 μM MDA/ml.
With `CCCCCCCCCCCCOS(=O)(=O)[O-].[Na+]` [SDS] the “lipid oxidising reaction in the test system” value (Chlamydia) was “no lipid oxidising reaction”.
